Measurements from US9084828B2, “Oligomer-protein tyrosine kinase inhibitor conjugates” (Nektar Therapeutics, priority 2009, dated 2015).

Columns and labels:
Format in all cases: biochemical
FGFR4 = FGFR4 (Homo sapiens, UniProt P22455); experiment: Activity against various protein tyrosine kinases: FGFR4
PKD2 = target: T1, PKD2 (Homo sapiens, UniProt Q9BZL6); experiment: Activity against various protein tyrosine kinases: PKD2
T1 sequence (Q9BZL6 1-878): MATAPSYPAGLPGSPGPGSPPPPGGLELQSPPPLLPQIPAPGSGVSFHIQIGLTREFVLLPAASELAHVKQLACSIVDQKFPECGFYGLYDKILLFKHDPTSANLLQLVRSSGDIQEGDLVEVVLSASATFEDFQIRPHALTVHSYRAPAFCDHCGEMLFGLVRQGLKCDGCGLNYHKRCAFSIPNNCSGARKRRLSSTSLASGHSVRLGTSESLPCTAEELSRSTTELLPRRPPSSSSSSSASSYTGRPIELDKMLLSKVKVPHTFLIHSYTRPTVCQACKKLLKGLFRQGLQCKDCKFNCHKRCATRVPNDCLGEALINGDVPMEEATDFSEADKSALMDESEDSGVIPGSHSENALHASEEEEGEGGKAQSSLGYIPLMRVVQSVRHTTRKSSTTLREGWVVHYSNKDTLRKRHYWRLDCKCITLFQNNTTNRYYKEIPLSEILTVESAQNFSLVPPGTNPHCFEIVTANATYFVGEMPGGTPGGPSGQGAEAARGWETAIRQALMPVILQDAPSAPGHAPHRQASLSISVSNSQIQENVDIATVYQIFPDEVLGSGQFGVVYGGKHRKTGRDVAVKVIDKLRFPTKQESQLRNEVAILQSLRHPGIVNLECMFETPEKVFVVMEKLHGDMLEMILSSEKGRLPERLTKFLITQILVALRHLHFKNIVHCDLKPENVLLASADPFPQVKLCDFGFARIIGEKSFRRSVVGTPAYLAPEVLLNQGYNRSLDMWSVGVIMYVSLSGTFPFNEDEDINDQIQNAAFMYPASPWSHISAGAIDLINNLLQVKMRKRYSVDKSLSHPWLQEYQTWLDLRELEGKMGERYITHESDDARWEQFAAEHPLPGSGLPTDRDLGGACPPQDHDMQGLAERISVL

PKA = PKA (Homo sapiens, UniProt P17612); experiment: Activity against various protein tyrosine kinases: PKA
EPHA2 = EPHA2 (Homo sapiens, UniProt P29317); experiment: Activity against various protein tyrosine kinases: EPHA2
EPHA2, sequence (P29317 24-976, species assumed): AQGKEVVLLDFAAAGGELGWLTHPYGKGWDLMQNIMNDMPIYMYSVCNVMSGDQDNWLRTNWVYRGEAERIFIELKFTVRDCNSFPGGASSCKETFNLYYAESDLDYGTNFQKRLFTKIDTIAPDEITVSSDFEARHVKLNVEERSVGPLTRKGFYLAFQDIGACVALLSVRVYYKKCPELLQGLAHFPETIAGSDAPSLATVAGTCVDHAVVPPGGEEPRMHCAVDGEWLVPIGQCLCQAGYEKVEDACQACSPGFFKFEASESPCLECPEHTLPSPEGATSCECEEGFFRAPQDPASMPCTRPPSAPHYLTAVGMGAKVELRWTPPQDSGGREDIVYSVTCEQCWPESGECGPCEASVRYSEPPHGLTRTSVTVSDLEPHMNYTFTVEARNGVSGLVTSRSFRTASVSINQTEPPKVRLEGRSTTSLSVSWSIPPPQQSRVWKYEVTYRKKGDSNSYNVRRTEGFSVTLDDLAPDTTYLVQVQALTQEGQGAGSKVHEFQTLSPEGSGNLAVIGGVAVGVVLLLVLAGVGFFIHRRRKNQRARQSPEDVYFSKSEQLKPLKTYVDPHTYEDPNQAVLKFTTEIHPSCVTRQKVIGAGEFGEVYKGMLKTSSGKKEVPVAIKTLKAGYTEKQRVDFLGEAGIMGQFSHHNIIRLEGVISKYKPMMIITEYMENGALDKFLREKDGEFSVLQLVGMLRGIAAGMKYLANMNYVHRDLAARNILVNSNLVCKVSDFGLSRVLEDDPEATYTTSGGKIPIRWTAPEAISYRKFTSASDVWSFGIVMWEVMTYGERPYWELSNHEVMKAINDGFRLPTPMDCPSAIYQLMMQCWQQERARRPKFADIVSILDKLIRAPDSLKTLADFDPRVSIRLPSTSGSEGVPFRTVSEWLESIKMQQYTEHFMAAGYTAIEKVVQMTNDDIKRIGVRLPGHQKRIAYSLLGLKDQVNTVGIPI

BTK = BTK (Homo sapiens, UniProt Q06187); experiment: Activity against various protein tyrosine kinases: BTK
BTK, sequence (Q06187 whole entry, species assumed): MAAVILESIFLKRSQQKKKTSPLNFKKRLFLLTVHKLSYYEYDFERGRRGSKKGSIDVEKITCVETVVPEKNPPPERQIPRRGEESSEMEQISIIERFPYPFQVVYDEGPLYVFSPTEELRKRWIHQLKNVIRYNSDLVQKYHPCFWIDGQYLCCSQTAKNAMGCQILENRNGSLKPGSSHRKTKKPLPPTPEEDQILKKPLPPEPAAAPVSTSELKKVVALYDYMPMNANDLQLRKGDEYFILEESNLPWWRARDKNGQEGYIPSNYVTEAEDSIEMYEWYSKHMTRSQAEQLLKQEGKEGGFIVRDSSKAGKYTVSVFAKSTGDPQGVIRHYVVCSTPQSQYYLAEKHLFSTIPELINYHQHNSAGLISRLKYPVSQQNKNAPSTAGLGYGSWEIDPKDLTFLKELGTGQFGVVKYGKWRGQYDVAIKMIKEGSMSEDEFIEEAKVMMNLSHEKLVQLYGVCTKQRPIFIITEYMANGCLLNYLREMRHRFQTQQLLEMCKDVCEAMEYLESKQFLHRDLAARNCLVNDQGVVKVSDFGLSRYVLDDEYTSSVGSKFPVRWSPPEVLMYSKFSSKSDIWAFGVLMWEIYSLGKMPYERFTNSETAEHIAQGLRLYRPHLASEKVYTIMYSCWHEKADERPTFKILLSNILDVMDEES
Experimental: (§1) Using techniques know those of ordinary skill in the art, compounds were tested for activity against various protein tyrosine kinases.

INSR = INSR (Homo sapiens, UniProt P06213); experiment: Activity against various protein tyrosine kinases: INSR
INSR, sequence (P06213 28-1382, species assumed): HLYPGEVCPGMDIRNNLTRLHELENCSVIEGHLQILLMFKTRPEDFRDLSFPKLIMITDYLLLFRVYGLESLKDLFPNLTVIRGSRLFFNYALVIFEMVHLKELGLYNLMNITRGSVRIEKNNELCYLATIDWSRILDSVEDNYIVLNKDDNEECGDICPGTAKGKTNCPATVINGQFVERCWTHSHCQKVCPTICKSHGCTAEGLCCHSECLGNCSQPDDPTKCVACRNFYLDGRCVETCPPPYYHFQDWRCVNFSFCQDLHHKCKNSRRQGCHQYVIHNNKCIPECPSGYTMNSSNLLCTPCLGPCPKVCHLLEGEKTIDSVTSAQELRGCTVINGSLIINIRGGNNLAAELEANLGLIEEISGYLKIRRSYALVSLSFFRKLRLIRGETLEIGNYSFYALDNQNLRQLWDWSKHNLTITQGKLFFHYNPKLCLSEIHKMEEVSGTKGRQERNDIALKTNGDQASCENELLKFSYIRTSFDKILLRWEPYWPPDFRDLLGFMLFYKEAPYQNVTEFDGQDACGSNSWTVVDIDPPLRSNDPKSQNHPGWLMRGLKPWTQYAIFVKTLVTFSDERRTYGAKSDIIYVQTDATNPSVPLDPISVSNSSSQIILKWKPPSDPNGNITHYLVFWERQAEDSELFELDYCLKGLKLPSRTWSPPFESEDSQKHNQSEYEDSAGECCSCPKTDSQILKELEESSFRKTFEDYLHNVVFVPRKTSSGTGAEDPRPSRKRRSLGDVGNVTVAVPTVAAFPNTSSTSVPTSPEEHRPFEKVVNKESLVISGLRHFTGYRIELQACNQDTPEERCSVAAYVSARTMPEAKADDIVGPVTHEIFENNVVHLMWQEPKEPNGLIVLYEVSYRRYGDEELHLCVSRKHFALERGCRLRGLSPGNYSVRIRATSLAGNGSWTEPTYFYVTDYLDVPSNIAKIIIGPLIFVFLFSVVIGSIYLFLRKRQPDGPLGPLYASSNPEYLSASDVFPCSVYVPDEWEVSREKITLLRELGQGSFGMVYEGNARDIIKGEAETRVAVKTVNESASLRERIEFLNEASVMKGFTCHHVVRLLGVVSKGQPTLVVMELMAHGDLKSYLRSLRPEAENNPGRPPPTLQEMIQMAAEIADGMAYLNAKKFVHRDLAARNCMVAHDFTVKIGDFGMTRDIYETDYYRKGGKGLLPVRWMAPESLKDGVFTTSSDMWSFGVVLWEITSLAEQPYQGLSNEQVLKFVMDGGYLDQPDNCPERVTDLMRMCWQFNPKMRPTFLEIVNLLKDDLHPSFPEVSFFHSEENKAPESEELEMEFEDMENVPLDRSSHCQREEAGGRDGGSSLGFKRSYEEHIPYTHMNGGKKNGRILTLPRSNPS

Fer = Fer (Homo sapiens, UniProt P16591); experiment: Activity against various protein tyrosine kinases: Fer
Fer, sequence (P16591 whole entry, species assumed): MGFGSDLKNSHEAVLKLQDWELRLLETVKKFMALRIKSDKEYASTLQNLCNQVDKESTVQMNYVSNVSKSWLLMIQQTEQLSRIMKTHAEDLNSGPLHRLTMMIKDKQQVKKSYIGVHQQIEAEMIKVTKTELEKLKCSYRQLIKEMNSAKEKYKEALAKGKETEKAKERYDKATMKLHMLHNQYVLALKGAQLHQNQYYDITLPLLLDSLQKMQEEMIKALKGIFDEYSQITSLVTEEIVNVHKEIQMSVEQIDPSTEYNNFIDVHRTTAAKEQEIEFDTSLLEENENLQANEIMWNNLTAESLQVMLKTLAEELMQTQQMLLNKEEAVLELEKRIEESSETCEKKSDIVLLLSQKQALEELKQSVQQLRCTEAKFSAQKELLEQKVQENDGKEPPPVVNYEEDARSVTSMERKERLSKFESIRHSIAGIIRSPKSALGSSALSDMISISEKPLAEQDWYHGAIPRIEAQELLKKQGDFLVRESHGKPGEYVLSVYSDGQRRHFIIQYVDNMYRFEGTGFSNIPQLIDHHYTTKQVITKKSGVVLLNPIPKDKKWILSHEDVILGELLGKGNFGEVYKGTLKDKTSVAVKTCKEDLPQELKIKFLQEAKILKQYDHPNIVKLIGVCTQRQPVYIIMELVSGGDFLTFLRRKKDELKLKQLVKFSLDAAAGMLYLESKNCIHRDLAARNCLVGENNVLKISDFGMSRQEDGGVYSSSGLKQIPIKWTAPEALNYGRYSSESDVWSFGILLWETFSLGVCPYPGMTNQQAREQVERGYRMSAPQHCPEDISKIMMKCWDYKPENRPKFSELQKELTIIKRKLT

Flt3(D835Y) = target: T2, Flt3(D835Y) (Homo sapiens, UniProt P36888, D835Y); experiment: Activity against various protein tyrosine kinases: Flt3(D835Y)
T2 sequence (P36888 27-993 D835Y): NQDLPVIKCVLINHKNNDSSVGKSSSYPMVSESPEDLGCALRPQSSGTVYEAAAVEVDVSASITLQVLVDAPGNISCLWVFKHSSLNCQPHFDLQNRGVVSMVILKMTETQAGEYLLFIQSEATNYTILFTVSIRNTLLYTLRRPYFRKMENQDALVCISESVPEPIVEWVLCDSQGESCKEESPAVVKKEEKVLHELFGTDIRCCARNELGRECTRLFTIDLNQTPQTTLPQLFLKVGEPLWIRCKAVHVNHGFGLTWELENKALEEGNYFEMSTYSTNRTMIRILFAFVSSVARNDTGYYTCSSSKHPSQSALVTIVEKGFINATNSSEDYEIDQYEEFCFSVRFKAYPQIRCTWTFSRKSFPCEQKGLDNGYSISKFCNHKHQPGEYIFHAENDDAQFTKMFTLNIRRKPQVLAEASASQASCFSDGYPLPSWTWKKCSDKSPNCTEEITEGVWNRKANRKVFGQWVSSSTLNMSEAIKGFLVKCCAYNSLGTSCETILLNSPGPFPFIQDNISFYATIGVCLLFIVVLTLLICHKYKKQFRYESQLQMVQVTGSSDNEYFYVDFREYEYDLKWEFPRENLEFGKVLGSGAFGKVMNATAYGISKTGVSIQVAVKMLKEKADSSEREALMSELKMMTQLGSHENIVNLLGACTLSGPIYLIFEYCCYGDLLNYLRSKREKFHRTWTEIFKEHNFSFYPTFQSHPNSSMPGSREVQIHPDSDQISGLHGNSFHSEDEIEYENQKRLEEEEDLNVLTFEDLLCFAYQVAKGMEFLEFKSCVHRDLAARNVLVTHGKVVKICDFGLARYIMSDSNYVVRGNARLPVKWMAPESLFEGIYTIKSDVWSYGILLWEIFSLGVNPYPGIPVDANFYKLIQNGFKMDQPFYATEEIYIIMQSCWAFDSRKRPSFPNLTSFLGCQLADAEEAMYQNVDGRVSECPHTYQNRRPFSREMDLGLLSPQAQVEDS
Experimental: as §1

AKT3 = AKT3 (Homo sapiens, UniProt Q9Y243); experiment: Activity against various protein tyrosine kinases: AKT3
AKT3, sequence (Q9Y243 whole entry, species assumed): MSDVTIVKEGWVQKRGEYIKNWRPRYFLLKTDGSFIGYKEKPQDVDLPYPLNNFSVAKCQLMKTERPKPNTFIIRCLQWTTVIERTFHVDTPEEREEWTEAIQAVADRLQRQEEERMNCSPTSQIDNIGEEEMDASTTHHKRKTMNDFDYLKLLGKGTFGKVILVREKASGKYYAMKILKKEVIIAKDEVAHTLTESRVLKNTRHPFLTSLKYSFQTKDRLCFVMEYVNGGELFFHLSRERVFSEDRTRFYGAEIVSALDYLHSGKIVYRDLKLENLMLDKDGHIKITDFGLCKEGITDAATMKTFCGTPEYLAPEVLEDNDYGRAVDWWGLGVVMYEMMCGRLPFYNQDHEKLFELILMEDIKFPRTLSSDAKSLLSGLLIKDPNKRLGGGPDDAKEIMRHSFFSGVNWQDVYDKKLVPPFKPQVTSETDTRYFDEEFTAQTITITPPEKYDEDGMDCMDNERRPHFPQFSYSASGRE

AurA = target: T3, AurA (Homo sapiens, UniProt O14965); experiment: Activity against various protein tyrosine kinases: AurA
T3 sequence (O14965 1-403): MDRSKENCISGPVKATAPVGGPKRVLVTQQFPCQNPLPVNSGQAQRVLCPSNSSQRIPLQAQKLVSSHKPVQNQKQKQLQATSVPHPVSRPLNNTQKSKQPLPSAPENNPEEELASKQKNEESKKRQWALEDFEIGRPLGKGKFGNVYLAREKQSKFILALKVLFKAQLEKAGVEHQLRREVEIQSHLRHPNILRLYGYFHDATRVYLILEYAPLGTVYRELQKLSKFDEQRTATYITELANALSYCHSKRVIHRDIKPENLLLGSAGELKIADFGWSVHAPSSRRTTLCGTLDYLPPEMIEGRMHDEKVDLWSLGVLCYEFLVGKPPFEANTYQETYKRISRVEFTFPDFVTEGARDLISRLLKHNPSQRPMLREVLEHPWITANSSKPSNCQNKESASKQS

ABL(Q252H) = ABL(Q252H) (Homo sapiens, UniProt P00519, Q252H); experiment: Activity against various protein tyrosine kinases: ABL(Q252H)
Experimental: as §1

FGFR4, sequence (P22455 22-802, species assumed): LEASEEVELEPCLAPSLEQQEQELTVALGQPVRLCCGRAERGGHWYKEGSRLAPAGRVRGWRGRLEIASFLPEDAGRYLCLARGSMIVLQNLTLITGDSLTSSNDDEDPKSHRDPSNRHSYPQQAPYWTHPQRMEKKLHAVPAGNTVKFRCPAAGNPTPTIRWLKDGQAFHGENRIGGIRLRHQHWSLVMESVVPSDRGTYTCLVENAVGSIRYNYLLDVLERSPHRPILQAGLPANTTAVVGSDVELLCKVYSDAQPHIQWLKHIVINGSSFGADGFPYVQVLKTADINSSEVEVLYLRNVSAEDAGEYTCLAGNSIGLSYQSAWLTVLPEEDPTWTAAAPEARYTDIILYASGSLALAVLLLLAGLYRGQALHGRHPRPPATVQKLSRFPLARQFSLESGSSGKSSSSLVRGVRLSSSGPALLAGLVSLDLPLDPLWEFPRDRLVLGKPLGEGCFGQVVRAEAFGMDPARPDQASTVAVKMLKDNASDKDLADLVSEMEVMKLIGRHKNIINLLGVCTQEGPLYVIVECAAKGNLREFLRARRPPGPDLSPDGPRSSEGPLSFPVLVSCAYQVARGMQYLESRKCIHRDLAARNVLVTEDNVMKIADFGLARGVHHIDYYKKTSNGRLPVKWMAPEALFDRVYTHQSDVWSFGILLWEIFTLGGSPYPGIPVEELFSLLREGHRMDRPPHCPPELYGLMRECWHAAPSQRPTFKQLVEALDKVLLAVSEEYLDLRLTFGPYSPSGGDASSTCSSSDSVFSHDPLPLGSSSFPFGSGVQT

Compound | % Inhibition at 10 nM (FGFR4) [%] | % Inhibition at 1 μM (FGFR4) [%] | % Inhibition at 10 nM (PKD2) [%] | % Inhibition at 1 μM (PKD2) [%] | % Inhibition at 10 nM (PKA) [%] | % Inhibition at 1 μM (PKA) [%] | % Inhibition at 10 nM (EPHA2) [%] | % Inhibition at 1 μM (EPHA2) [%] | % Inhibition at 10 nM (BTK) [%] | % Inhibition at 1 μM (BTK) [%] | % Inhibition at 10 nM (INSR) [%] | % Inhibition at 1 μM (INSR) [%] | % Inhibition at 10 nM (Fer) [%] | % Inhibition at 1 μM (Fer) [%] | % Inhibition at 10 nM (Flt3(D835Y)) [%] | % Inhibition at 1 μM (Flt3(D835Y)) [%] | % Inhibition at 10 nM (AKT3) [%] | % Inhibition at 1 μM (AKT3) [%] | % Inhibition at 10 nM (AurA) [%] | % Inhibition at 1 μM (AurA) [%] | further results
COCCOCCOCCOCCOCCOCCOCCNC(=O)OCCN1CCN(c2cc(Nc3ncc(C(=O)Nc4c(C)cccc4Cl)s3)nc(C)n2)CC1 [mPEG7-NHCOO-Dasatinib] | 0 | 2 | 3 | 4 | 0 | 2 | 36 | 101 | 99 | 100 | 2 | 3 | −2 | 5 | 3 | 7 | −3 | −2 | 3 | 28 | % Inhibition at 10 nM (ABL(Q252H)): 99%; % Inhibition at 1 μM (ABL(Q252H)): 99%
COCCOCCOCCNC(=O)OCCN1CCN(c2cc(Nc3ncc(C(=O)Nc4c(C)cccc4Cl)s3)nc(C)n2)CC1 [mPEG3-NHCOO-Dasatinib] | 3 | 6 | 12 | −5 | 3 | 0 | 40 | 100 | 99 | 100 | 1 | −1 | −4 | 5 | 6 | 10 | 0 | −1 | −7 | 19 | % Inhibition at 10 nM (ABL(Q252H)): 98%; % Inhibition at 1 μM (ABL(Q252H)): 99%
